Source: article PMC4557640 (2015)

What was measured:
[1] = system: Aod(xtal) (RNA, riboswitch) GGGUCGUGACUGGCGAACAGGUGGGAAACCACCGGGGAGCGACCCUUGCCGCCCGCCUGGGCAA; assay: ITC; conditions: 135 mM KCl, 15 mM NaCl, 10 mM MgCl2; 10 mM K-HEPES pH 8.0
[2] = system: Aod(xtal-wtL2) (RNA, riboswitch) GGGUCGUGACUGGCGAACAGGUGGGCCACCACCGGGGAGCGACCCUUGCCGCCCGCCUGGGCAA; assay: ITC; conditions: 135 mM KCl, 15 mM NaCl, 10 mM MgCl2; 10 mM K-HEPES pH 8.0

KD [1]: 1.08 ± 0.06 µM
KD [2]: 0.47 ± 0.03 µM
SMILES: NC(=O)c1ncn([C@@H]2O[C@H](COP(=O)(O)O)[C@@H](O)[C@H]2O)c1N
